Key:
Veronica persica = experiment: greenhouse pre-emergence trial, percent damage vs untreated control 21 days after treatment; format: in vivo; conditions: VERPE
Papaver rhoeas = experiment: as above; format: in vivo; conditions: PAPRH

FC(F)(F)c1ccc(-c2nccc(Oc3cccc(C(F)(F)F)c3)n2)cc1 [Compound A, 4-(3-trifluoromethylphenoxy)-2-(4-trifluoromethylphenyl)-pyrimidine] was tested, and the “Compound A alone (% control)” value (Veronica persica; 3.75 g/ha, Example 1A) was 13%, the “Compound A alone (% control)” value (Veronica persica; 3.75 g/ha, Example 2) was 0% and the “Compound A alone (% control)” value (Veronica persica; 7.5 g/ha, Example 1A) was 33%. The “Compound A alone (% control)” value (Veronica persica; 7.5 g/ha, Example 2) was 23%, the “Compound A alone (% control)” value (Veronica persica; 15 g/ha, Example 2) was 60% and the “Compound A alone (% control)” value (Papaver rhoeas; 3.75 g/ha, Example 1A) was 63%. For the same compound, the “Compound A alone (% control)” value (Papaver rhoeas; 3.75 g/ha, Example 2) was 0% and the “Compound A alone (% control)” value (Papaver rhoeas; 7.5 g/ha, Example 2) was 15%.
